Columns and labels:
[1] = test system: human A431 vulval carcinoma tumour xenografts; test: Human A431 vulval carcinoma tumour xenografts in nude mice; details: A431 xenograft; for Number of tumours regressing after 31 days of treatment (treatment from day 28 to day 59): tumour volume at day 59 smaller than pre-treatment value on day 28, regressing/total
Experimental: 5×10^6 A431 tumour cells in 0.1 ml of serum free Dulbecco's Modified Eagle's Medium (DMEM) were injected subcutaneously (s.c.) into the flank of each athymic (nu/nu genotype) mouse. Eleven days after inoculation tumours were excised and dissected to generate cubic tumour fragments of 0.5-1 mm^3, which were implanted into further nude mice for a therapy experiment. Tumour volumes were assessed by bilateral Vernier caliper measurement and, taking length to be the longest diameter across the tumour and width the corresponding perpendicular, calculated using the formula (length×width)×the square root of (length×width)×(π/6). […] In addition, the number of tumour regressions following 31 days of treatment was ascertained (tumour regression being evident if the tumour volume at day 59 was smaller than the pre-treatment value on day 28).

[2] = test system: human LoVo colon tumour xenografts; test: Human LoVo colon tumour xenografts in nude mice; details: LoVo xenograft, p.o. daily days 0-14, ZD6474 6 mg/kg/day, ZD1839 50 mg/kg/day, or combination, versus control
Experimental: 10^7 LoVo tumour cells in 0.1 ml of serum free Dulbecco's Modified Eagle's Medium (DMEM) were injected subcutaneously (s.c.) into the flank of each athymic (nu/nu genotype) mouse. Tumor volumes were assessed by bilateral Vernier caliper measurement and, taking length to be the longest diameter across the tumor and width the corresponding perpendicular, calculated using the formula (length×width)×the square root of (length×width)×(π/6). […] A one-tailed two-sample t-test was used to evaluate the significance of tumour growth inhibition.

SMILES | Number of tumours regressing after 31 days of treatment (treatment from day 28 to day 59) [1] | % Inhibition of Tumour Growth at Day 14 [2] [%] | Mean % Inhibition of tumour growth following 21 days of treatment (treatment from day 28 to day 49) ([1]; nude mice, p.o., ZD6474 50 mg/kg/day, ZD1839 50 mg/kg/day, or combination, assessed day 49 versus control) | % tumour regression following 21 days of treatment (day 28 to day 49) ([1]; restatement of inhibition above 100% as regression, day 49)
COc1cc2ncnc(Nc3ccc(F)c(Cl)c3)c2cc1OCCCN1CCOCC1 [ZD1839, N-(3-chloro-4-fluorophenyl)-7-methoxy-6-(3-morpholinopropoxy)quinazolin-4-amine, reference compound] | 3/9 |  |  | 
COc1cc2c(Nc3ccc(Br)cc3F)ncnc2cc1OCC1CCN(C)CC1 [ZD6474, 4-(4-bromo-2-fluoroanilino)-6-methoxy-7-(1-methylpiperidin-4-ylmethoxy)quinazoline] | 6/9 | 38 | 116% (P < 0.001) | (i.e. 16% tumour regression)

From patent US20100130493A1, “COMBINATION OF VEGF RECEPTOR TYROSINE KINASE INHIBITORS FOR TREATMENT OF CANCER” (priority 2002, published 2010)
